In US12233081B2, “Hygromycin a compounds and methods of treating spirochete diseases” (priority 2018, dated 2025):
Read-outs that look alike come from different tables or passages of the source.

Legend:
gut microbiome [1] = settings: mouse, in vivo, 100 mg/kg
gut microbiome [2] = assay: gut microbiome 16S rRNA sequencing of stool of infected, treated mice; settings: for Enterococcaceae change in percent relative abundance: 100 mg/kg
[3] = IP 100 mg/kg every 12 hours for 5 days
[4] = oral 100 mg/kg every 12 hours for 5 days

CC1(C)S[C@@H]2[C@H](NC(=O)[C@H](N)c3ccc(O)cc3)C(=O)N2[C@H]1C(=O)O [Amox, amoxicillin]
Camobacteriaceae change in percent relative abundance (gut microbiome [1]; C3H, ip, 5 days): 0.000%
Chitinophagaceae change in percent relative abundance (gut microbiome [1]; C3H, ip, 5 days): 0.000%
Christensenellaceae change in percent relative abundance (gut microbiome [1]; C3H, ip, 5 days): 0.000%
Clostridiaceae change in percent relative abundance (gut microbiome [1]; C3H, ip, 5 days): 0.211%
Clostridiales change in percent relative abundance (gut microbiome [1]; C3H, ip, 5 days): −0.037%
Clostridiales family xi. incertae sedis change in percent relative abundance (gut microbiome [1]; C3H, ip, 5 days): −0.010%
Clostridiales family xiii. incertae sedis change in percent relative abundance (gut microbiome [1]; C3H, ip, 5 days): −0.007%
Coriobacteriaceae change in percent relative abundance (gut microbiome [1]; C3H, ip, 5 days): 0.099%
Acholeplasmataceae change in percent relative abundance (gut microbiome [1]; ip): 0.005%
Aerococcaceae change in percent relative abundance (gut microbiome [1]; ip): 0.000%
Anaerolineaceae change in percent relative abundance (gut microbiome [1]; ip): 0.000%
Anaeroplasmataceae change in percent relative abundance (gut microbiome [1]; ip): −0.132%
Anaplasmataceae change in percent relative abundance (gut microbiome [1]; ip): 0.000%
Aspergillaceae change in percent relative abundance (gut microbiome [1]; ip): 0.000%
Asteraceae change in percent relative abundance (gut microbiome [1]; ip): 0.000%
Bacillaceae change in percent relative abundance (gut microbiome [1]; ip): −0.011%
Bacillales change in percent relative abundance (gut microbiome [1]; ip): −0.031%
Bacteroidaceae change in percent relative abundance (gut microbiome [1]; ip): 0.684%
Bifidobacteriaceae change in percent relative abundance (gut microbiome [1]; ip): 0.000%
Candidatus saccharibacteria change in percent relative abundance (gut microbiome [1]; ip): −0.018%
Corynebacteriaceae change in percent relative abundance (gut microbiome [1]; ip): 0.000%
Cytophagaceae change in percent relative abundance (gut microbiome [1]; ip): 0.001%
Deferribacteraceae change in percent relative abundance (gut microbiome [1]; ip): 0.080%
Defluviitaleaceae change in percent relative abundance (gut microbiome [1]; ip): 0.000%
Desulfobacteraceae change in percent relative abundance (gut microbiome [1]; ip): 0.000%
Enterobacteriaceae change in percent relative abundance (gut microbiome [1]; ip): −0.243%
Enterococcaceae change in percent relative abundance (gut microbiome [1]; ip): 0.052%
Erysipelotrichaceae change in percent relative abundance (gut microbiome [1]; ip): −0.193%
Eubacteriaceae change in percent relative abundance (gut microbiome [1]; ip): −1.475%
Fabaceae change in percent relative abundance (gut microbiome [1]; ip): 0.000%
Flavobacteriaceae change in percent relative abundance (gut microbiome [1]; ip): 0.000%
Fusobacteriaceae change in percent relative abundance (gut microbiome [1]; ip): 0.000%
Gammaproteobacteria change in percent relative abundance (gut microbiome [1]; ip): 0.003%
Gloeobacteraceae change in percent relative abundance (gut microbiome [1]; ip): 0.055%
Gracilibacteraceae change in percent relative abundance (gut microbiome [1]; ip): −0.026%
Halomonadaceae change in percent relative abundance (gut microbiome [1]; ip): 0.000%
Hylidae change in percent relative abundance (gut microbiome [1]; ip): 0.000%
Kopriimonadaceae change in percent relative abundance (gut microbiome [1]; ip): 0.000%
Lachnospiraceae change in percent relative abundance (gut microbiome [1]; ip): −1.425%
Lactobacillaceae change in percent relative abundance (gut microbiome [1]; ip): 1.726%
Leuconostocaceae change in percent relative abundance (gut microbiome [1]; ip): 0.000%
Methylobacteriaceae change in percent relative abundance (gut microbiome [1]; ip): 0.000%
Microbacteriaceae change in percent relative abundance (gut microbiome [1]; ip): 0.000%
Mucoraceae change in percent relative abundance (gut microbiome [1]; ip): 0.000%
Nostocaceae change in percent relative abundance (gut microbiome [1]; ip): 0.000%
Onagraceae change in percent relative abundance (gut microbiome [1]; ip): 0.000%
Oscillatoriales change in percent relative abundance (gut microbiome [1]; ip): 0.000%
Oscillospiraceae change in percent relative abundance (gut microbiome [1]; ip): 0.001%
Paenibacillaceae change in percent relative abundance (gut microbiome [1]; ip): −0.001%
Pasteurellaceae change in percent relative abundance (gut microbiome [1]; ip): 0.000%
Pelobacteraceae change in percent relative abundance (gut microbiome [1]; ip): 0.000%
Peptococcaceae change in percent relative abundance (gut microbiome [1]; ip): −0.325%
Peptoniphilaceae change in percent relative abundance (gut microbiome [1]; ip): 0.000%
Peptostreptococcaceae change in percent relative abundance (gut microbiome [1]; ip): −0.131%
Physalacriaceae change in percent relative abundance (gut microbiome [1]; ip): 0.000%
Poaceae change in percent relative abundance (gut microbiome [1]; ip): 0.024%
Polyangiaceae change in percent relative abundance (gut microbiome [1]; ip): 0.000%
Porphyromonadaceae change in percent relative abundance (gut microbiome [1]; ip): 10.471%
Prevotellaceae change in percent relative abundance (gut microbiome [1]; ip): 0.080%
Pseudomonadaceae change in percent relative abundance (gut microbiome [1]; ip): 0.000%
Rhizobiaceae change in percent relative abundance (gut microbiome [1]; ip): 0.000%
Rhodobacteraceae change in percent relative abundance (gut microbiome [1]; ip): 0.000%
Rikenellaceae change in percent relative abundance (gut microbiome [1]; ip): −3.443%
Ruminococcaceae change in percent relative abundance (gut microbiome [1]; ip): −0.093%
Sphingomonadaceae change in percent relative abundance (gut microbiome [1]; ip): 0.000%
Spirochaetaceae change in percent relative abundance (gut microbiome [1]; ip): −0.032%
Spiroplasmataceae change in percent relative abundance (gut microbiome [1]; ip): −0.059%
Staphylococcaceae change in percent relative abundance (gut microbiome [1]; ip): −0.001%
Streptococcaceae change in percent relative abundance (gut microbiome [1]; ip): −7.086%
Thermoanaerobacteraceae change in percent relative abundance (gut microbiome [1]; ip): −0.008%
Veillonellaceae change in percent relative abundance (gut microbiome [1]; ip): 0.000%
Verrucomicrobiaceae change in percent relative abundance (gut microbiome [1]; ip): 1.296%
Xanthomonadaceae change in percent relative abundance (gut microbiome [1]; ip): 0.001%
Acholeplasmataceae change in percent relative abundance (gut microbiome [1]; po): 0.095%
Candidatus saccharibacteria change in percent relative abundance (gut microbiome [1]; po): −0.022%
Brucellaceae change in percent relative abundance (gut microbiome [2]; [3]): 0.000%
Francisellaceae change in percent relative abundance (gut microbiome [2]; [3]): 0.001%
Aerococcaceae change in percent relative abundance (gut microbiome [2]; [4]): 0.000%
Anaerolineaceae change in percent relative abundance (gut microbiome [2]; [4]): 0.000%
Anaeroplasmataceae change in percent relative abundance (gut microbiome [2]; [4]): −0.048%
Anaplasmataceae change in percent relative abundance (gut microbiome [2]; [4]): 0.000%
Aspergillaceae change in percent relative abundance (gut microbiome [2]; [4]): 0.000%
Asteraceae change in percent relative abundance (gut microbiome [2]; [4]): 0.003%
Bacillaceae change in percent relative abundance (gut microbiome [2]; [4]): 0.002%
Bacillales change in percent relative abundance (gut microbiome [2]; [4]): −0.100%
Bacteroidaceae change in percent relative abundance (gut microbiome [2]; [4]): −8.426%
Bifidobacteriaceae change in percent relative abundance (gut microbiome [2]; [4]): −0.124%
Brucellaceae change in percent relative abundance (gut microbiome [2]; [4]): 0.001%
Camobacteriaceae change in percent relative abundance (gut microbiome [2]; [4]): −0.002%
Chitinophagaceae change in percent relative abundance (gut microbiome [2]; [4]): 0.000%
Christensenellaceae change in percent relative abundance (gut microbiome [2]; [4]): 0.000%
Clostridiaceae change in percent relative abundance (gut microbiome [2]; [4]): −6.891%
Clostridiales change in percent relative abundance (gut microbiome [2]; [4]): −0.099%
Clostridiales family xi. incertae sedis change in percent relative abundance (gut microbiome [2]; [4]): −0.027%
Clostridiales family xiii. incertae sedis change in percent relative abundance (gut microbiome [2]; [4]): −0.011%
Coriobacteriaceae change in percent relative abundance (gut microbiome [2]; [4]): −0.019%
Corynebacteriaceae change in percent relative abundance (gut microbiome [2]; [4]): 0.000%
Cytophagaceae change in percent relative abundance (gut microbiome [2]; [4]): −0.001%
Deferribacteraceae change in percent relative abundance (gut microbiome [2]; [4]): −0.085%
Defluviitaleaceae change in percent relative abundance (gut microbiome [2]; [4]): −0.001%
Desulfobacteraceae change in percent relative abundance (gut microbiome [2]; [4]): 0.000%
Enterobacteriaceae change in percent relative abundance (gut microbiome [2]; [4]): −1.496%
Erysipelotrichaceae change in percent relative abundance (gut microbiome [2]; [4]): −2.932%
Eubacteriaceae change in percent relative abundance (gut microbiome [2]; [4]): 4.510%
Fabaceae change in percent relative abundance (gut microbiome [2]; [4]): 0.001%
Flavobacteriaceae change in percent relative abundance (gut microbiome [2]; [4]): 0.000%
Francisellaceae change in percent relative abundance (gut microbiome [2]; [4]): −0.001%
Fusobacteriaceae change in percent relative abundance (gut microbiome [2]; [4]): 0.000%
Gammaproteobacteria change in percent relative abundance (gut microbiome [2]; [4]): −0.027%
Gloeobacteraceae change in percent relative abundance (gut microbiome [2]; [4]): −0.013%
Gracilibacteraceae change in percent relative abundance (gut microbiome [2]; [4]): −0.105%
Halomonadaceae change in percent relative abundance (gut microbiome [2]; [4]): 0.001%
Hylidae change in percent relative abundance (gut microbiome [2]; [4]): 0.002%
Kopriimonadaceae change in percent relative abundance (gut microbiome [2]; [4]): 0.000%
Lachnospiraceae change in percent relative abundance (gut microbiome [2]; [4]): −5.482%
Lactobacillaceae change in percent relative abundance (gut microbiome [2]; [4]): −15.023%
Leuconostocaceae change in percent relative abundance (gut microbiome [2]; [4]): 0.002%
Methylobacteriaceae change in percent relative abundance (gut microbiome [2]; [4]): 0.000%
Microbacteriaceae change in percent relative abundance (gut microbiome [2]; [4]): 0.000%
Mucoraceae change in percent relative abundance (gut microbiome [2]; [4]): 0.002%
Nostocaceae change in percent relative abundance (gut microbiome [2]; [4]): 0.001%
Onagraceae change in percent relative abundance (gut microbiome [2]; [4]): 0.000%
Oscillatoriales change in percent relative abundance (gut microbiome [2]; [4]): 0.069%
Oscillospiraceae change in percent relative abundance (gut microbiome [2]; [4]): −0.005%
Paenibacillaceae change in percent relative abundance (gut microbiome [2]; [4]): −0.001%
Pasteurellaceae change in percent relative abundance (gut microbiome [2]; [4]): 0.000%
Pelobacteraceae change in percent relative abundance (gut microbiome [2]; [4]): 0.000%
Peptococcaceae change in percent relative abundance (gut microbiome [2]; [4]): −0.948%
Peptoniphilaceae change in percent relative abundance (gut microbiome [2]; [4]): 0.000%
Peptostreptococcaceae change in percent relative abundance (gut microbiome [2]; [4]): −0.187%
Physalacriaceae change in percent relative abundance (gut microbiome [2]; [4]): 0.000%
Poaceae change in percent relative abundance (gut microbiome [2]; [4]): 0.107%
Polyangiaceae change in percent relative abundance (gut microbiome [2]; [4]): 0.000%
Porphyromonadaceae change in percent relative abundance (gut microbiome [2]; [4]): −19.192%
Prevotellaceae change in percent relative abundance (gut microbiome [2]; [4]): −0.240%
Pseudomonadaceae change in percent relative abundance (gut microbiome [2]; [4]): 0.000%
Rhizobiaceae change in percent relative abundance (gut microbiome [2]; [4]): 0.001%
Rhodobacteraceae change in percent relative abundance (gut microbiome [2]; [4]): 0.000%
Rikenellaceae change in percent relative abundance (gut microbiome [2]; [4]): −6.166%
Ruminococcaceae change in percent relative abundance (gut microbiome [2]; [4]): −1.440%
Sphingomonadaceae change in percent relative abundance (gut microbiome [2]; [4]): 0.000%
Spirochaetaceae change in percent relative abundance (gut microbiome [2]; [4]): −0.056%
Spiroplasmataceae change in percent relative abundance (gut microbiome [2]; [4]): −0.004%
Staphylococcaceae change in percent relative abundance (gut microbiome [2]; [4]): 0.000%
Streptococcaceae change in percent relative abundance (gut microbiome [2]; [4]): −2.376%
Thermoanaerobacteraceae change in percent relative abundance (gut microbiome [2]; [4]): −0.028%
Veillonellaceae change in percent relative abundance (gut microbiome [2]; [4]): 0.001%
Verrucomicrobiaceae change in percent relative abundance (gut microbiome [2]; [4]): −0.009%
Xanthomonadaceae change in percent relative abundance (gut microbiome [2]; [4]): 0.002%
all other commensal taxa such as Bacteroidaceae and Lactobacillaceae (gut microbiome [2]; [4]): depleted
mice with Enterococcaceae blooms (gut microbiome [2]; [4]): 4/5
Enterococcaceae change in percent relative abundance (gut microbiome [2]; [4]): 75.807%
Enterococcaceae change in percent relative abundance (gut microbiome [2]; oral 100 mg/kg every 12 hours for 5 days, listed as amoxicillin): 75.8%
